Experimental data from patent publication US11319303B2 (WIGEN BIOMEDICINE TECHNOLOGY (SHANGHAI) CO., LTD., priority 2017, dated 2022).
pIC50: −log10 of the molar value.

The molecules below were run against LC3B (Homo sapiens, UniProt Q9GZQ8) (assay: Fluorescence Polarization (FP) Assay: displacement of FITC-labeled peptide from GST-LC3B). Conditions: not given.
Type: binding
Description: The compounds of the present invention for regulating the autophagy-related protein LC3B were tested by Fluorescence Polarization (FP) Assay.
Fluorescence Polarization (FP) Assay Test

| Compound | pIC50 |
| --- | --- |
| COc1ccc(C2CC(=O)C(=CNCCN(C)C)C(=O)C2)c(F)c1F (stereo not drawn) [Compound 403, 5-(2,3-difluoro-4-methoxyphenyl)-2-(((2-(dimethylamino)ethyl)amino)methylene) cyclohexane-1,3-dione] | > 5.52 |
| CN(C)CCNC=C1C(=O)CC(c2cccc(F)c2Cl)CC1=O (stereo not drawn) [Compound 410] | > 5.52 |

Same assay, conditions: Fluorescence Polarization assay; GST-LC3B 180 nM, FITC-labeled peptide 18 nM, 25° C.; read-out: IC50

| Compound | pIC50 |
| --- | --- |
| CN(C)CCNC=C1C(=O)CC(c2ccc(F)c(F)c2F)CC1=O (stereo not drawn) [Compound 401, 2-(((2-(dimethylamino)ethyl)amino)methylene)-5-(2,3,4-trifluorophenyl) cyclohexane-1,3-dione] | > 5.52 |
| CC(F)(F)c1ccccc1C1CC(=O)C(=CNCCN2CCN(CCO)CC2)C(=O)C1 (stereo not drawn) [Compound 404, 5-(2-(1,1-difluoroethyl)phenyl)-2-(((2-(4-(2-ethoxyl)piperazin-1-yl)ethyl)amino)methylene) cyclohexane-1,3-dione] | > 5.52 |
| O=C1CC(c2cccc3[nH]c(Br)c(Cl)c23)CC(=O)C1=CNCCN1CCN(CCO)CC1 (stereo not drawn) [Compound 405, 5-(2-bromo-3-chloro-1H-indol-4-yl)-2-(((2-(4-(2-ethoxyl)piperazin-1-yl)ethyl)amino)methylene) cyclohexane-1-1,3-dione] | > 5.52 |
| O=C1CC(=Cc2ccccc2)C(=O)C1=CNCCN1CCN(CCO)CC1 [Compound 407, 4-benzylidene-2-(((2-(4-(2-ethoxyl)piperazin-1-yl)ethyl)amino)methylene) cyclopentane-1,3-dione] | 4.00 to 4.82 |
| CN(C)CCNC=C1C(=O)CC(c2c(Cl)ccc(F)c2Cl)CC1=O (stereo not drawn) [Compound 411, 5-(2,6-dichloro-3-fluorophenyl)-2-(((2-(dimethylamino)ethyl)amino)methylene) cyclohexane-1,3-dione] | > 5.52 |
| CN(C)CCNC=C1C(=O)CC(c2c(F)c(F)c(F)c(F)c2F)CC1=O (stereo not drawn) [Compound 412, 2-(((2-(dimethylamino)ethyl)amino)methylene)-5-(perfluorophenyl) cyclohexane-1,3-dione] | > 5.52 |
| CN(C)CCNC=C1C(=O)CC(c2c[nH]c(-c3ccccc3)c2)CC1=O (stereo not drawn) [Compound 414, 2-(((2-(dimethylamino)ethyl)amino)methylene)-5-(5-phenyl-1H-pyrrole-3-yl)cyclohexane-1,3-dione] | 4.82 to 5.52 |
| O=C1CC(c2ccccc2F)CC(=O)C1=CO (stereo not drawn) [Compound 416, 2-(hydroxymethylene)-5-(2-fluorophenyl)cyclo-hexane-1,3-dione] | > 5.52 |
| O=C1CC(c2cccc(Cl)c2)CC(=O)C1=CO (stereo not drawn) [Compound 419, 2-(hydroxymethylene)-5-(3-chlorophenyl)cyclo-hexane-1,3-dione] | > 5.52 |
| COc1ccccc1C1CC(=O)C(=CO)C(=O)C1 (stereo not drawn) [Compound 423, 2-(hydroxymethylene)-5-(2-methoxyphenyl)cyclo-hexane-1,3-dione] | 4.82 to 5.52 |
| COc1ccc(C2CC(=O)C(=CO)C(=O)C2)c(OC)c1 (stereo not drawn) [Compound 424, 2-(hydroxymethylene)-5-(2,4-dimethoxyphenyl) cyclohexane-1,3-dione] | 4.82 to 5.52 |
| O=C1CC(c2cccs2)CC(=O)C1=CO (stereo not drawn) [Compound 427, 2-(hydroxymethylene)-5-(2-thiophen)cyclohexane-1,3-dione] | 4.82 to 5.52 |
| O=C1CC(c2ccsc2)CC(=O)C1=CO (stereo not drawn) [Compound 428, 2-(hydroxymethylene)-5-(3-thiophen)cyclohexane-1,3-dione] | 4.82 to 5.52 |
| O=C1CC(c2ccnc3ccccc23)CC(=O)C1=CO (stereo not drawn) [Compound 431, 2-(hydroxymethylene)-5-(4-quinoline)cyclohexane-1,3-dione] | 4.82 to 5.52 |
| COc1cc(Br)c(C2CC(=O)C(=CO)C(=O)C2)cc1OC (stereo not drawn) [Compound 433, 2-(hydroxymethylene)-5-(2-bromo-4,5-dimethoxyphenyl) cyclohexane-1,3-dione] | > 5.52 |
| O=C1CC(c2ccccc2)CC(=O)C1=CO (stereo not drawn) [Compound 444, 2-(hydroxymethylene)-5-phenylcyclohexane-1,3-dione] | 4.82 to 5.52 |
| O=C1CC(CCc2ccc3c(c2)OCO3)CC(=O)C1=CO (stereo not drawn) [Compound 445, 2-(hydroxymethylene)-5-(2-(benzo[d] [1,3]dioxo-5-yl)ethyl)-cyclohexane-1,3-dione] | 4.00 to 4.82 |
| O=C1CC(c2c(C(F)(F)F)ccc(Cl)c2F)CC(=O)C1=CO (stereo not drawn) [Compound 447, 2-(hydroxymethylene)-5-((2-fluoro-3-chloro-6-trifluoromethyl)phenyl)cyclohexane-1,3-dione] | > 5.52 |
| O=C1C=C(c2ccccc2)OC(=O)C1=CO [Compound 448, 3-(hydroxymethylene)-6-phenyl-2H-pyran-2,4(3H)-dione] | 4.82 to 5.52 |

Continued, values first:

| pIC50 | Compound |
| --- | --- |
| > 5.52 | CN(C)CCNC=C1C(=O)CC(c2c(F)c(F)cc(F)c2F)CC1=O (stereo not drawn) [Compound 402, 2-(((2-(dimethylamino)ethyl)amino)methylene)-5-(2,3,5,6-tetrafluorophenyl) cyclohexane-1,3-dione] |
| > 5.52 | O=C1CC(c2ccccc2-c2c(Cl)cccc2Cl)CC(=O)C1=CNCCN1CCN(CCO)CC1 (stereo not drawn) [Compound 406, 5-(2′,6′-dichloro-[1,1′-biphenyl]-2-yl)-2-(((2-(4-(2-ethoxyl)piperazin-1-yl)ethyl)amino)methylene) cyclohexane-1,3-dione] |
| 4.82 to 5.52 | O=C1CC(c2cccc(Cl)c2Cl)CC(=O)C1=CN1CCCCC1 (stereo not drawn) [Compound 408, 5-(2,3-dichlorophenyl)-2-(piperidine-1-ylmethylene) cyclohexane-1,3-dione] |
| > 5.52 | CN(C)CCNC=C1C(=O)CC(c2c(Br)ccc(F)c2F)CC1=O (stereo not drawn) [Compound 409] |
| 4.82 to 5.52 | CN(C)CCNC=C1C(=O)CC(c2c[nH]cc2Br)CC1=O (stereo not drawn) [Compound 413, 5-(4-bromo-1H-pyrrole-3-yl)-2-(((2-(dimethylamino)ethyl)amino)methylene) cyclohexane-1,3-dione] |
| 4.82 to 5.52 | Cc1ccc(C2CC(=O)C(=CO)C(=O)C2)cc1 (stereo not drawn) [Compound 415, 2-(hydroxymethylene)-5-(4-methylphenyl)cyclo-hexane-1,3-dione] |
| > 5.52 | O=C1CC(c2cccc(F)c2F)CC(=O)C1=CO (stereo not drawn) [Compound 417, 2-(hydroxymethylene)-5-(2,3-difluorophenyl)cyclo-hexane-1,3-dione] |
| > 5.52 | O=C1CC(c2ccccc2Cl)CC(=O)C1=CO (stereo not drawn) [Compound 418, 2-(hydroxymethylene)-5-(2-chlorophenyl)cyclo-hexane-1,3-dione] |
| > 5.52 | O=C1CC(c2c(Cl)cccc2Cl)CC(=O)C1=CO (stereo not drawn) [Compound 420, 2-(hydroxymethylene)-5-(2,6-dichlorophenyl)cyclo-hexane-1,3-dione] |
| > 5.52 | O=C1CC(c2cccc(Cl)c2Cl)CC(=O)C1=CO (stereo not drawn) [Compound 421, 2-(hydroxymethylene)-5-(2,3-dichlorophenyl)cyclo-hexane-1,3-dione] |
| > 5.52 | O=C1CC(c2ccccc2Br)CC(=O)C1=CO (stereo not drawn) [Compound 422, 2-(hydroxymethylene)-5-(2-bromophenyl)cyclo-hexane-1,3-dione] |
| 4.00 to 4.82 | N#Cc1ccc(C2CC(=O)C(=CO)C(=O)C2)cc1 (stereo not drawn) [Compound 425, 2-(hydroxymethylene)-5-(4-cyanophenyl)cyclo-hexane-1,3-dione] |
| > 5.52 | O=C1CC(c2ccccc2C(F)(F)F)CC(=O)C1=CO (stereo not drawn) [Compound 426, 2-(hydroxymethylene)-5-(2-trifluoromethylphenyl) cyclohexane-1,3-dione] |
| > 5.52 | O=C1CC(c2cccc3[nH]ccc23)CC(=O)C1=CO (stereo not drawn) [Compound 429, 2-(hydroxymethylene)-5-(1H-indol-4-yl)cyclohexane-1,3-dione] |
| > 5.52 | O=C1CC(c2c[nH]c3ccccc23)CC(=O)C1=CO (stereo not drawn) [Compound 430, 2-(hydroxymethylene)-5-(1H-indol-3-yl)cyclohexane-1,3-dione] |
| > 5.52 | COc1ccc(Br)c(C2CC(=O)C(=CO)C(=O)C2)c1 (stereo not drawn) [Compound 432, 2-(hydroxymethylene)-5-(2-bromo-5-methoxyphenyl)cyclo-hexane-1,3-dione] |
| 4.82 to 5.52 | O=C1CC(c2ccccc2[N+](=O)[O-])CC(=O)C1=CO (stereo not drawn) [Compound 434, 2-(hydroxymethylene)-5-(2-nitrophenyl)cyclo-hexane-1,3-dione] |
| 4.82 to 5.52 | O=C1CC(c2cccc([N+](=O)[O-])c2)CC(=O)C1=CO (stereo not drawn) [Compound 435, 2-(hydroxymethylene)-5-(3-nitrophenyl)cyclo-hexane-1,3-dione] |
| 4.82 to 5.52 | O=C1CC(c2ccc([N+](=O)[O-])cc2)CC(=O)C1=CO (stereo not drawn) [Compound 436, 2-(hydroxymethylene)-5-(4-nitrophenyl)cyclo-hexane-1,3-dione] |
| 4.82 to 5.52 | O=C1CC(c2ccc(C(F)(F)F)cc2)CC(=O)C1=CO (stereo not drawn) [Compound 437, 2-(hydroxymethylene)-5-(4-trifluoromethylphenyl) cyclohexane-1,3-dione] |
| 4.82 to 5.52 | O=C1CC(c2ccc(Br)cc2)CC(=O)C1=CO (stereo not drawn) [Compound 438, 2-(hydroxymethylene)-5-(4-bromophenyl)cyclo-hexane-1,3-dione] |
| 4.82 to 5.52 | O=C1CC(c2cccc(Br)c2)CC(=O)C1=CO (stereo not drawn) [Compound 439, 2-(hydroxymethylene)-5-(3-bromophenyl)cyclo-hexane-1,3-dione] |
| 4.82 to 5.52 | CSc1ccc(C2CC(=O)C(=CO)C(=O)C2)cc1 (stereo not drawn) [Compound 440, 5-(4-methylthiophenyl)-2-(hydroxymethylene) cyclohexane-1,3-dione] |
| 4.00 to 4.82 | COc1cccc(OC)c1C1CC(=O)C(=CO)C(=O)C1 (stereo not drawn) [Compound 441, 2-(hydroxymethylene)-5-(2,6-dimethoxyphenyl) cyclohexane-1,3-dione] |
| 4.00 to 4.82 | O=C1CC(c2ccccc2O)CC(=O)C1=CO (stereo not drawn) [Compound 442, 2-(hydroxymethylene)-5-(2-hydroxyphenyl)cyclo-hexane-1,3-dione] |
| 4.00 to 4.82 | O=C1CC(c2ccc(O)cc2)CC(=O)C1=CO (stereo not drawn) [Compound 443, 2-(hydroxymethylene)-5-(4-hydroxyphenyl)cyclo-hexane-1,3-dione] |
| 4.82 to 5.52 | O=C1CC(c2cccc(F)c2)CC(=O)C1=CO (stereo not drawn) [Compound 446, 2-(hydroxymethylene)-5-(3-fluorophenyl)cyclo-hexane-1,3-dione] |
